Experimental data: patent US10072011B2, “Substituted bridged urea analogs as sirtuin modulators” (GlaxoSmithKline Intellectual Property (No.2) Limited, priority 2014, dated 2018)
Like-named read-outs stand apart in the source and are kept apart here.

Molecular target: T1, SIRT1 (Homo sapiens, UniProt Q96EB6)
T1 sequence (Q96EB6 1-747): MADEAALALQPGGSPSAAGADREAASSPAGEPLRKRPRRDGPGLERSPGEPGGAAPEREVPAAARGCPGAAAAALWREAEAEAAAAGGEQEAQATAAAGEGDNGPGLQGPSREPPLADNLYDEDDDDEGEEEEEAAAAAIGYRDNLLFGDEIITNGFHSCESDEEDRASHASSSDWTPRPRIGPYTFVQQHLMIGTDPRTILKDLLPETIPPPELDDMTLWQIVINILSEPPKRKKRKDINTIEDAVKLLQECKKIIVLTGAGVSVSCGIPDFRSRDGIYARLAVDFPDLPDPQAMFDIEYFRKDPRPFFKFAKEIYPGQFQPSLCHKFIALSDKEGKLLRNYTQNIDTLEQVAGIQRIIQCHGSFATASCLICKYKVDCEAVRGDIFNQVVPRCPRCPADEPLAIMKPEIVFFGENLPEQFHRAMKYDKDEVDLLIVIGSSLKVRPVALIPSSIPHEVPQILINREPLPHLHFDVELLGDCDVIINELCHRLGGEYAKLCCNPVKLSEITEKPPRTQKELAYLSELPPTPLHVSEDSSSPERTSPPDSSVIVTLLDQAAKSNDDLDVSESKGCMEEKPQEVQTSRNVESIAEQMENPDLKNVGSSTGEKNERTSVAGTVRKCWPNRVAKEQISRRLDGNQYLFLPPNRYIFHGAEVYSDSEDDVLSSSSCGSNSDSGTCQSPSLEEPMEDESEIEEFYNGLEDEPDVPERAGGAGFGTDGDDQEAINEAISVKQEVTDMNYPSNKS
Assay: Trp mass spectrometry assay of SIRT1 activation (Ac-R-H-K-K(Ac)-W-NH2 peptide)
Format: biochemical
Conditions: for Emax: 25 min, read-out: TRP MAX RESP (percent maximum fold activation)
Outline: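 Mass spectrometry read-out (OAADPR formed, or deacetylated Trp peptide) after a 25 min NAD-dependent deacetylation by E. coli-expressed His-SIRT1, stopped with formic acid.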

[1] = Trp peptide 0.5 μM, 120 μM βNAD+, 10 nM SIRT1, 25 min at 25° C., relative to control (100%)
[2] = Trp peptide 0.5 μM, 120 μM βNAD+, 10 nM SIRT1, 25 min at 25° C.

Row | SMILES | Emax [1] | TRP Activity (EC1.5, concentration of test compound that results in 150% activation of SIRT1) [2] | TRP MAX RESP (percent maximum fold activation) [1] | Emax
1 | C[C@@H](NC(=O)c1ccc2c(n1)N(C(=O)Nc1ccncn1)[C@H]1CCN2C1)C(F)(F)F [Example 66, (4S)—N5-(pyrimidin-4-yl)-N7-((R)-1,1,1-trifluoropropan-2-yl)-3,4-dihydro-1,4-methanopyrido[2,3-b][1,4]diazepine-5,7(2H)-dicarboxamide] | > 150% | A (EC1.5<1 μM) | – | –
2 | Cc1ncc(-c2ccnc(NC(=O)N3c4nc(C(=O)N[C@H](C)C(F)(F)F)cc(C)c4N4CC[C@H]3C4)c2)o1 [Example 252, (4S)-9-methyl-N5-(4-(2-methyloxazol-5-yl)pyridin-2-yl)-N7-((R)-1,1,1-trifluoropropan-2-yl)-3,4-dihydro-1,4-methanopyrido[2,3-b][1,4]diazepine-5,7(2H)-dicarboxamide] | < 150% | A (EC1.5<1 μM) | – | –
3 | C#C[C@@H](C)NC(=O)c1ccc2c(n1)N(C(=O)Nc1ccccn1)[C@H]1CCN2C1 [Example 105, (4S)—N7-((R)-but-3-yn-2-yl)-N5-(pyridin-2-yl)-3,4-dihydro-1,4-methanopyrido[2,3-b][1,4]diazepine-5,7(2H)-dicarboxamide] | > 150% | A (EC1.5<1 μM) | – | –
4 | O=C(NCC1(CO)CC1)c1ccc2c(n1)N(C(=O)Nc1ccccn1)[C@H]1CCN2C1 [Example 28, (4S)—N7-((1-(hydroxymethyl)cyclopropyl)methyl)-N5-(pyridin-2-yl)-3,4-dihydro-1,4-methanopyrido[2,3-b][1,4]diazepine-5,7(2H)-dicarboxamide] | > 150% | B (EC1.5 1-25 μM) | – | –
5 | CC(C)c1ccc(NC(=O)N2c3nc(C(=O)NCC(F)(F)F)ccc3N3CC[C@H]2C3)nc1 [Example 172, (4S)—N5-(5-isopropylpyridin-2-yl)-N7-(2,2,2-trifluoroethyl)-3,4-dihydro-1,4-methanopyrido[2,3-b][1,4]diazepine-5,7(2H)-dicarboxamide] | > 150% | A (EC1.5<1 μM) | – | –
6 | COc1cc(C(=O)NCC(F)(F)F)nc2c1N1CC[C@@H](C1)N2C(=O)Nc1ccccn1 [Example 286, (4S)-9-methoxy-N5-(pyridin-2-yl)-N7-(2,2,2-trifluoroethyl)-3,4-dihydro-1,4-methanopyrido[2,3-b][1,4]diazepine-5,7(2H)-dicarboxamide] | – | A (EC1.5<1 μM) | – | > 150%
7 | O=C(NCC(F)(F)F)c1ccc2c(n1)N(C(=O)Nc1ccc(C3CC3)cn1)[C@H]1CCN2C1 [Example 174, (4S)—N5-(5-cyclopropylpyridin-2-yl)-N7-(2,2,2-trifluoroethyl)-3,4-dihydro-1,4-methanopyrido[2,3-b][1,4]diazepine-5,7(2H)-dicarboxamide] | > 150% | A (EC1.5<1 μM) | – | –
8 | NC(CNC(=O)c1ccc2c(n1)N(C(=O)Nc1ncccn1)[C@H]1CCN2C1)C(F)(F)F (single isomer, unassigned) [Example 198] | > 150% | B (EC1.5 1-25 μM) | – | –

Further lines, with some results ahead:

Row | Emax [1] | TRP Activity (EC1.5, concentration of test compound that results in 150% activation of SIRT1) [2] | TRP MAX RESP (percent maximum fold activation) [1] | SMILES | Emax
9 | > 150% | A (EC1.5<1 μM) | – | O=C(N[C@H](CO)C(F)(F)F)c1ccc2c(n1)N(C(=O)Nc1ccc(F)cn1)[C@H]1CCN2C1 [Example 82, (4S)—N5-(5-fluoropyridin-2-yl)-N7-((R)-1,1,1-trifluoro-3-hydroxypropan-2-yl)-3,4-dihydro-1,4-methanopyrido[2,3-b][1,4]diazepine-5,7(2H)-dicarboxamide] | –
10 | < 150% | A (EC1.5<1 μM) | – | CC(C)NC(=O)c1ccnc(NC(=O)N2c3nc(C(=O)N[C@H](C)C(F)(F)F)ccc3N3CC[C@H]2C3)c1 [Example 297, (4S)—N5-(4-(isopropylcarbamoyl)pyridin-2-yl)-N7-((R)-1,1,1-trifluoropropan-2-yl)-3,4-dihydro-1,4-methanopyrido[2,3-b][1,4]diazepine-5,7(2H)-dicarboxamide] | –
11 | > 150% | A (EC1.5<1 μM) | – | C[C@@H](NC(=O)c1ccc2c(n1)N(C(=O)Nc1cccc(OC[C@@H](O)CO)n1)[C@H]1CCN2C1)C(F)(F)F [Example 144, (4S)—N5-(6-((S)-2,3-dihydroxypropoxy)pyridin-2-yl)-N7-((R)-1,1,1-trifluoropropan-2-yl)-3,4-dihydro-1,4-methanopyrido[2,3-b][1,4]diazepine-5,7(2H)-dicarboxamide] | –
12 | – | B (EC1.5 1-25 μM) | A (Fold activation≥150%) | O=C(NC1CC1(F)F)c1ccc2c(n1)N(C(=O)Nc1cnccn1)[C@H]1CCN2C1 (single isomer, unassigned) [Example 273] | –
13 | > 150% | A (EC1.5<1 μM) | – | O=C(N[C@H](C1CC1)C(F)(F)F)c1ccc2c(n1)N(C(=O)Nc1cc(OC[C@H](O)CO)ccn1)[C@H]1CCN2C1 [Example 88, (4S)—N7-((R)-1-cyclopropyl-2,2,2-trifluoroethyl)-N5-(4-((R)-2,3-dihydroxypropoxy)pyridin-2-yl)-3,4-dihydro-1,4-methanopyrido[2,3-b][1,4]diazepine-5,7(2H)-dicarboxamide] | –
14 | – | B (EC1.5 1-25 μM) | B (Fold Activation<150%) | C=CCNC(=O)c1ccc2c(n1)N(C(=O)Nc1cc(OC[C@H](O)CO)ccn1)[C@H]1CCN2C1 [Example 315, (4S)—N7-allyl-N5-(4-((R)-2,3-dihydroxypropoxy)pyridin-2-yl)-3,4-dihydro-1,4-methanopyrido[2,3-b][1,4]diazepine-5,7(2H)-dicarboxamide] | –
15 | – | B (EC1.5 1-25 μM) | B (Fold Activation<150%) | C[C@@H](NC(=O)c1ccc2c(n1)N(C(=O)Nc1ncc(F)cc1F)[C@H]1CCN2C1)C(F)(F)F [Example 310, (4S)—N5-(3,5-difluoropyridin-2-yl)-N7-((R)-1,1,1-trifluoropropan-2-yl)-3,4-dihydro-1,4-methanopyrido[2,3-b][1,4]diazepine-5,7(2H)-dicarboxamide] | –
16 | > 150% | B (EC1.5 1-25 μM) | – | O=C(NCC(F)(F)F)c1ccc2c(n1)N(C(=O)Nc1ccc3[nH]cnc3c1)[C@H]1CCN2C1 [Example 231, (4S)—N5-(1H-benzo[d]imidazol-5-yl)-N7-(2,2,2-trifluoroethyl)-3,4-dihydro-1,4-methanopyrido[2,3-b][1,4]diazepine-5,7(2H)-dicarboxamide] | –
17 | > 150% | A (EC1.5<1 μM) | – | COCC(NC(=O)c1ccc2c(n1)N(C(=O)Nc1ccccn1)[C@H]1CCN2C1)C1CC1 (single isomer, unassigned) [Example 59] | –
18 | > 150% | B (EC1.5 1-25 μM) | – | O=C(NCC1(O)CC1)c1ccc2c(n1)N(C(=O)Nc1ccccn1)[C@H]1CCN2C1 [Example 36, (4S)—N7-((1-hydroxycyclopropyl)methyl)-N5-(pyridin-2-yl)-3,4-dihydro-1,4-methanopyrido[2,3-b][1,4]diazepine-5,7(2H)-dicarboxamide] | –
